Patent publication EP0908457B1, “3-(1,2-benzisothiazol- and isoxazol-5-Y1)-2,4(1H,3H)-pyrimidinedione or thione and 3-(1,2-benzisothiazol- and isoxazol-5-y1)-4(3H)-pyrimidinone or thione herbicidal agents” (BASF AKTIENGESELLSCHAFT, priority 1997, dated 1999)

How the values were obtained:
[1] = system: Echinochloa oryzoides (Ard.) Fritsch.; assay: Preemergence weed control under flooded paddy conditions, ECHORC (Watergrass (Calif.)); format: in vivo; details: preemergence, flooded paddy, rated three to four weeks after treatment; further: meaning of each grade not given here
[2] = system: Cyperus iria; assay: Preemergence weed control under flooded paddy conditions, CYPIR (Rice Flatsedge); format: in vivo; details: preemergence, flooded paddy, rated three to four weeks after treatment; further: meaning of each grade not given here
[3] = system: Cyperus serotinus, Rottb.; assay: Preemergence weed control under flooded paddy conditions, CYPSE (Flatsedge); format: in vivo; details: preemergence, rated three to four weeks after treatment; further: meaning of each grade not given here
[4] = system: Monochoria vaginalis, Presl.; assay: Preemergence weed control under flooded paddy conditions, MOOVA (Monochoria); format: in vivo; details: preemergence, flooded paddy, rated three to four weeks after treatment; further: meaning of each grade not given here
[5] = system: Sagittaria pygmaea, L.; assay: Preemergence weed control under flooded paddy conditions, SAGPY (Arrowhead (Pygmaea)); format: in vivo; details: preemergence, flooded paddy, rated three to four weeks after treatment; further: meaning of each grade not given here
[6] = system: Echinochloa oryzoides (Ard.) Fritsch.; assay: Postemergence weed control under flooded paddy conditions, ECHORC (Watergrass (Calif.)); format: in vivo; details: rated three to four weeks after treatment
[7] = system: Cyperus iria; assay: Postemergence weed control under flooded paddy conditions, CYPIR (Rice Flatsedge); format: in vivo; details: rated three to four weeks after treatment
[8] = system: Cyperus serotinus, Rottb.; assay: Postemergence weed control under flooded paddy conditions, CYPSE (Flatsedge); format: in vivo; details: rated three to four weeks after treatment
[9] = system: Monochoria vaginalis, Presl.; assay: Postemergence weed control under flooded paddy conditions, MOOVA (Monochoria); format: in vivo; details: rated three to four weeks after treatment
[10] = system: Sagittaria pygmaea, L.; assay: Postemergence weed control under flooded paddy conditions, SAGPY (Arrowhead (Pygmaea)); format: in vivo; details: rated three to four weeks after treatment
[11] = system: Oryza sativa, (L.) Tebonnet; assay: Rice tolerance to post-transplant applications under flooded paddy conditions (Example 187), ORYSAT (Rice, Tebonnet); details: rated three to four weeks after treatment
[12] = system: Oryza sativa, (L.) Tebonnet; assay: Rice tolerance to post-transplant applications under flooded paddy conditions (Example 188), ORYSAT (Rice, Tebonnet); details: rated three to four weeks after treatment

COc1cc(C)ccc1-c1nsc2ccc(-n3c(=O)cc(C(F)(F)F)n(C)c3=O)cc12 [Example 7, 3-[3-(2-Methoxy-p-tolyl)-1,2-benzisothiazol-5-yl]-1-methyl-6-(trifluoromethyl)-2,4(1H,3H)-pyrimidinedione]
4.0: herbicidal effect rating, SAGPY ([10]; Rate 0.1250 kg/ha)
6.0: herbicidal effect rating, SAGPY ([5]; 0.0313 kg/ha) | herbicidal effect rating, CYPSE ([8]; Rate 0.0625 kg/ha) | herbicidal effect rating, ORYSAT (rice tolerance) ([11]; 0.0313 kg/ha)
0.0: herbicidal effect rating, SAGPY ([10]; Rate 0.0313 kg/ha)
7.0: herbicidal effect rating, CYPSE ([3]; 0.0313 kg/ha) | herbicidal effect rating, CYPSE ([3]; 0.0625 kg/ha) | herbicidal effect rating, CYPSE ([3]; 0.2500 kg/ha) | herbicidal effect rating, ORYSAT (rice tolerance) ([11]; 0.1250 kg/ha) | herbicidal effect rating, ORYSAT (rice tolerance) ([11]; 0.2500 kg/ha) | herbicidal effect rating, ORYSAT (rice tolerance) ([12]; Rate 0.0313 kg/ha) | herbicidal effect rating, ORYSAT (rice tolerance) ([12]; Rate 0.0625 kg/ha) | herbicidal effect rating, ORYSAT (rice tolerance) ([12]; Rate 0.1250 kg/ha) | herbicidal effect rating, ORYSAT (rice tolerance) ([12]; Rate 0.2500 kg/ha)
8.0: herbicidal effect rating, CYPSE ([3]; 0.1250 kg/ha) | herbicidal effect rating, SAGPY ([5]; 0.0625 kg/ha) | herbicidal effect rating, CYPSE ([8]; Rate 0.5000 kg/ha) | herbicidal effect rating, ORYSAT (rice tolerance) ([11]; 0.0625 kg/ha) | herbicidal effect rating, ORYSAT (rice tolerance) ([12]; Rate 0.5000 kg/ha)
2.0: herbicidal effect rating, CYPSE ([8]; Rate 0.0313 kg/ha) | herbicidal effect rating, SAGPY ([10]; Rate 0.0625 kg/ha)
9.0: herbicidal effect rating, ECHORC ([1]; 0.0313 kg/ha) | herbicidal effect rating, ECHORC ([1]; 0.0625 kg/ha) | herbicidal effect rating, ECHORC ([1]; 0.1250 kg/ha) | herbicidal effect rating, ECHORC ([1]; 0.2500 kg/ha) | herbicidal effect rating, ECHORC ([1]; 0.5000 kg/ha) | herbicidal effect rating, CYPIR ([2]; 0.0313 kg/ha) | herbicidal effect rating, CYPIR ([2]; 0.0625 kg/ha) | herbicidal effect rating, CYPIR ([2]; 0.1250 kg/ha) | herbicidal effect rating, CYPIR ([2]; 0.2500 kg/ha) | herbicidal effect rating, CYPIR ([2]; 0.5000 kg/ha) | herbicidal effect rating, CYPSE ([3]; 0.5000 kg/ha) | herbicidal effect rating, MOOVA ([4]; 0.0313 kg/ha) | herbicidal effect rating, MOOVA ([4]; 0.0625 kg/ha) | herbicidal effect rating, MOOVA ([4]; 0.1250 kg/ha) | herbicidal effect rating, MOOVA ([4]; 0.2500 kg/ha) | herbicidal effect rating, MOOVA ([4]; 0.5000 kg/ha) | herbicidal effect rating, SAGPY ([5]; 0.1250 kg/ha) | herbicidal effect rating, SAGPY ([5]; 0.2500 kg/ha) | herbicidal effect rating, SAGPY ([5]; 0.5000 kg/ha) | herbicidal effect rating, ECHORC ([6]; Rate 0.0313 kg/ha) | herbicidal effect rating, ECHORC ([6]; Rate 0.0625 kg/ha) | herbicidal effect rating, ECHORC ([6]; Rate 0.1250 kg/ha) | herbicidal effect rating, ECHORC ([6]; Rate 0.2500 kg/ha) | herbicidal effect rating, ECHORC ([6]; Rate 0.5000 kg/ha) | herbicidal effect rating, CYPIR ([7]; Rate 0.0313 kg/ha) | herbicidal effect rating, CYPIR ([7]; Rate 0.0625 kg/ha) | herbicidal effect rating, CYPIR ([7]; Rate 0.1250 kg/ha) | herbicidal effect rating, CYPIR ([7]; Rate 0.2500 kg/ha) | herbicidal effect rating, CYPIR ([7]; Rate 0.5000 kg/ha) | herbicidal effect rating, CYPSE ([8]; Rate 0.1250 kg/ha) | herbicidal effect rating, CYPSE ([8]; Rate 0.2500 kg/ha) | herbicidal effect rating, MOOVA ([9]; Rate 0.0313 kg/ha) | herbicidal effect rating, MOOVA ([9]; Rate 0.0625 kg/ha) | herbicidal effect rating, MOOVA ([9]; Rate 0.1250 kg/ha) | herbicidal effect rating, MOOVA ([9]; Rate 0.2500 kg/ha) | herbicidal effect rating, MOOVA ([9]; Rate 0.5000 kg/ha) | herbicidal effect rating, SAGPY ([10]; Rate 0.2500 kg/ha) | herbicidal effect rating, SAGPY ([10]; Rate 0.5000 kg/ha) | herbicidal effect rating, ORYSAT (rice tolerance) ([11]; 0.5000 kg/ha)

Cc1cc(O)c(-c2nsc3ccc(-n4c(=O)cc(C(F)(F)F)n(C)c4=O)cc23)cc1C [Example 11, 3-[3-(6-Hydroxy-3,4-xylyl)-1,2-benzisothiazol-5-yl]-1-methyl-6-(trifluoromethyl)-2,4(1H,3H)-pyrimidinedione]
2.0: herbicidal effect rating, CYPSE ([3]; 0.0625 kg/ha) | herbicidal effect rating, CYPSE ([3]; 0.1250 kg/ha) | herbicidal effect rating, CYPSE ([3]; 0.2500 kg/ha) | herbicidal effect rating, SAGPY ([5]; 0.2500 kg/ha) | herbicidal effect rating, ECHORC ([6]; Rate 0.1250 kg/ha) | herbicidal effect rating, ORYSAT (rice tolerance) ([11]; 0.0625 kg/ha) | herbicidal effect rating, ORYSAT (rice tolerance) ([11]; 0.1250 kg/ha)
7.0: herbicidal effect rating, ECHORC ([1]; 0.0625 kg/ha) | herbicidal effect rating, CYPSE ([3]; 0.5000 kg/ha) | herbicidal effect rating, ECHORC ([6]; Rate 0.5000 kg/ha) | herbicidal effect rating, SAGPY ([10]; Rate 0.5000 kg/ha)
1.0: herbicidal effect rating, ORYSAT (rice tolerance) ([12]; Rate 0.2500 kg/ha) | herbicidal effect rating, ORYSAT (rice tolerance) ([12]; Rate 0.5000 kg/ha)
8.0: herbicidal effect rating, ECHORC ([1]; 0.1250 kg/ha) | herbicidal effect rating, ECHORC ([1]; 0.2500 kg/ha) | herbicidal effect rating, CYPIR ([7]; Rate 0.0313 kg/ha)
9.0: herbicidal effect rating, ECHORC ([1]; 0.5000 kg/ha) | herbicidal effect rating, CYPIR ([2]; 0.0625 kg/ha) | herbicidal effect rating, CYPIR ([2]; 0.1250 kg/ha) | herbicidal effect rating, CYPIR ([2]; 0.2500 kg/ha) | herbicidal effect rating, CYPIR ([2]; 0.5000 kg/ha) | herbicidal effect rating, MOOVA ([4]; 0.0625 kg/ha) | herbicidal effect rating, MOOVA ([4]; 0.1250 kg/ha) | herbicidal effect rating, MOOVA ([4]; 0.2500 kg/ha) | herbicidal effect rating, MOOVA ([4]; 0.5000 kg/ha) | herbicidal effect rating, SAGPY ([5]; 0.5000 kg/ha) | herbicidal effect rating, CYPIR ([7]; Rate 0.0625 kg/ha) | herbicidal effect rating, CYPIR ([7]; Rate 0.1250 kg/ha) | herbicidal effect rating, CYPIR ([7]; Rate 0.2500 kg/ha) | herbicidal effect rating, CYPIR ([7]; Rate 0.5000 kg/ha) | herbicidal effect rating, MOOVA ([9]; Rate 0.0313 kg/ha) | herbicidal effect rating, MOOVA ([9]; Rate 0.0625 kg/ha) | herbicidal effect rating, MOOVA ([9]; Rate 0.1250 kg/ha) | herbicidal effect rating, MOOVA ([9]; Rate 0.2500 kg/ha) | herbicidal effect rating, MOOVA ([9]; Rate 0.5000 kg/ha)
0.0: herbicidal effect rating, SAGPY ([5]; 0.0625 kg/ha) | herbicidal effect rating, SAGPY ([5]; 0.1250 kg/ha) | herbicidal effect rating, ECHORC ([6]; Rate 0.0313 kg/ha) | herbicidal effect rating, ECHORC ([6]; Rate 0.0625 kg/ha) | herbicidal effect rating, CYPSE ([8]; Rate 0.0313 kg/ha) | herbicidal effect rating, CYPSE ([8]; Rate 0.0625 kg/ha) | herbicidal effect rating, CYPSE ([8]; Rate 0.1250 kg/ha) | herbicidal effect rating, CYPSE ([8]; Rate 0.2500 kg/ha) | herbicidal effect rating, CYPSE ([8]; Rate 0.5000 kg/ha) | herbicidal effect rating, SAGPY ([10]; Rate 0.0313 kg/ha) | herbicidal effect rating, SAGPY ([10]; Rate 0.0625 kg/ha) | herbicidal effect rating, SAGPY ([10]; Rate 0.1250 kg/ha) | herbicidal effect rating, ORYSAT (rice tolerance) ([12]; Rate 0.0313 kg/ha) | herbicidal effect rating, ORYSAT (rice tolerance) ([12]; Rate 0.0625 kg/ha) | herbicidal effect rating, ORYSAT (rice tolerance) ([12]; Rate 0.1250 kg/ha)
3.0: herbicidal effect rating, ORYSAT (rice tolerance) ([11]; 0.2500 kg/ha) | herbicidal effect rating, ORYSAT (rice tolerance) ([11]; 0.5000 kg/ha)
4.0: herbicidal effect rating, ECHORC ([6]; Rate 0.2500 kg/ha) | herbicidal effect rating, SAGPY ([10]; Rate 0.2500 kg/ha)
